Assay results taken from US12709645B2, “Targeting gene amplification in cancer using triplex formation as a therapeutic strategy” (Yale University, priority 2018, dated 2026).

Columns and labels:
[1] = system: BT474 cells; assay: Neutral comet assay in BT474 cells; assay type: cell-based, human; conditions: 24 hours post-treatment
Procedure: (§1) Cells were seeded in six-well plates at a density of 2-4×10^5 cells per well the day before transfection. Cells were transfected with 2 μg of HER2-targeted TFO or MIX24 using Oligofectamine (Invitrogen) or Dharmafect-1 (Dharmacon) transfection reagent. Transfection was performed as per manufacturer's instructions. siRNA directed against p53, XPD and non-target controls (ON-Target plus SMARTpool reagents; (Dharmacon) were transfected into BT474 cells using Dharmafect-1 transfection reagent (Dharmacon) according to the manufacturers instructions. Western blot analysis was used to confirm knockdown of protein.
(§2) Comet Assay. Neutral cornet assays were performed 24 h post TFO-transfection as per the manufacturers instructions (Trevigen) with the adjustment of 3.5×10^5 cells/ml for each single cell suspension and 30 minutes electrophoresis. Comets were visualized using an Axiovert 200 microscope and analyzed with Autocomet software. Approximately 100-200 comets were analyzed per experiment. Results were expressed as mean tail moment.

[2] = system: cell lines containing multiple copies of the HER2 gene; assay: Neutral comet assay in breast cancer cell lines; assay type: cell-based, human; conditions: 24 h after treatment
Procedure: (§3) Cell Lines and Transfections. Human breast cancer cell lines were obtained from ATCC and routinely tested for mycoplasma. The human cell lines, MDA-MB-453, SKBR3, and BT474 are HER2-amplified breast cancer cell lines. BT20 and MCF7 cells are non-amplified breast cancer cell lines. MCF-10A is a non-tumorigenic breast epithelial cell line. PEO1 and SKOV3 are human ovarian cancer cell lines with HER2 gene amplification.
as §1
Comet Assay. […] Comets were visualized using an Axiovert 200 microscope and analyzed with Autocomet software. Approximately 100-200 comets were analyzed per experiment. Results were expressed as mean tail moment.

[3] = system: HER2; assay: HER2 gene expression by RT-PCR; assay type: cell-based, human; conditions: non-amplified and amplified breast cancer cell lines
Procedure: Gene Expression. RNA was extracted from snap-frozen cells using the RNeasy Kit (Qiagen) per the manufacturers protocol. cDNA synthesis was carried out with 10 μg of RNA via reverse transcription reactions and the High-Capacity cDNA Reverse Transcription Kit (ThermoFisher Scientific). cDNA (10 ng) was then combined with TaqMan Universal PCR master mix (20 μl) (Applied Biosystem) and primers specific to HER2 (HER2, Hs01001580_m1, ThermoFisher Scientific) or the internal control, β-actin (Hs99999903_m1, ThermoFisher Scientific). qRT-PCR was performed in 96-well optical plates in triplicate for each sample. Briefly, reactions were performed at 50° C. for 2 minutes, followed by 95° C. for 10 minutes. Amplification of the target or control gene was carried out with 40 cycles of the two-step reaction, which included 95° C. for 15 seconds and 1 minute at 60° C. β-actin expression levels were used to normalize the difference between cDNA levels in different samples. Relative expression levels were calculated using the 2(-Delta Delta C(T)) method.

[4] = system: Chk1; assay: Western blot of DNA damage response protein phosphorylation; assay type: cell-based, human; conditions: HER2-amplified vs normal copy number cells
Procedure: (§4) Western blotting. Whole cell lysates were prepared from floating and adherent cells using RIPA buffer according to standard protocols. Total protein (30-50 μg per sample) was resolved by SDS-PAGE. Proteins were detected by a standard immunoblot protocol using the following primary antibodies: cleaved PARP, cleaved caspase 3, γH2AX, XPD, p53, HER2, pHER2 ([…]), HER3, pHER3 (Y1289), HER4, pHER4 (Y1284), EGFR, pEGFR (Y1068), Chk1, pChk1(S345), pChk2 (T68), and Chk2 (Cell Signaling Technology); pH2AX (tyrosine 142; EMD Millipore); tubulin (clone B-512; Sigma), and GAPDH-HRP (Proteintech). Each experiment was repeated with independent sample preparation a minimum of three times, and representative western blots are shown.

[5] = system: SKOV3 ovarian cancer xenografts; assay: SKOV3 ovarian cancer subcutaneous xenograft model; conditions: HER2-205 20 mg/kg vs cisplatin 10 mg/kg, IP
Procedure: To establish an ovarian cancer model, female BALB/c athymic nude mice were injected subcutaneously in the flank with 5×10^6 SKOV3 cells suspended in 100 μl equal volume of media and Matrigel. Mice bearing a tumor of about 100 mm^3 in volume were randomly divided into three treatment groups: vehicle (PBS), n=5; HER2-targeted TFO, HER2-205, n=5; and cisplatin, n=7. […] Tumor volumes were monitored and tumor tripling times were calculated as described above.

[6] = system: PE01 and SKOV3 cells; assay: Apoptosis in ovarian cancer cells (Annexin V, cleaved PARP); assay type: cell-based, human; conditions: Annexin V 48 h post-treatment
Procedure: as §4
(§5) Apoptosis analysis. Cells (2−4×10^5) were seeded in six-well plates 24 h prior to treatment with MIX24, HER2-1 or HER2-205 (2 μg). Post-treatment analysis was performed using the Annexin V-FITC/PI apoptosis detection kit (BD Pharmingen) according to the manufacturers protocol. Apoptotic frequency was calculated as the combined percentage of early and late apoptotic cells. Data analysis was performed using Flow-Jo software.

[7] = system: PE01 and SKOV3 cells; assay: Immunofluorescence of γH2AX foci in ovarian cancer cells; assay type: cell-based, human; conditions: 24 h
Procedure: (§6) Immunofluorescence. Cells were seeded onto UV-irradiated coverslips and were treated for 24 h with HER2-205, MIX24, or a mock transfection. Cells were processed 24 h post-transfection, fixed with 4% formaldehyde and then incubated with ice-cold 100% methanol for 20 minutes followed by a methanol and acetone solution (1:1) for 20 minutes each at −20° C. After washing with PBS, cells were blocked with blocking buffer (4% BSA, 0.2% Triton X-100 in PBS) for 30 minutes and then incubated overnight with the following primary antibodies: γH2AX (1:500; Cell Signaling or Millipore) and 53BP1 (1:100; Santa Cruz) in blocking buffer at 4° C. After three washes, cells were incubated with secondary antibodies Alexa 488 F(ab′)2 fragment goat anti-rabbit IgG or Alexa 568 F(ab′)2 fragment goat anti-mouse IgG (1:1000; Molecular Probes) for 1 h at room temperature. Cells were then mounted on microscope glass slides with anti-fade mounting media containing DAPI (Life Technologies), and pictures were taken with a Leica SP5 microscope. Immunofluorescence experiments were repeated for validation.

[8] = system: BT474 human breast cancer tumors; assay: BT474 breast cancer subcutaneous xenograft model; assay type: in vivo, athymic nude mice; conditions: for tumor growth relative to controls / tumor tripling time post-initial dose: 20 mg/kg IP, 3 doses over 7 days
Procedure: Six to seven-week old female BALB/c athymic, ovariectomized nude mice (Harlan Sprague-Dawley) were implanted with 0.72 mg, 60-day release 17β-estradiol pellets (Innovative Research). […] Tumor volumes in each group were then monitored and mice were sacrificed when tumor volumes reached 1000 mm^3. Error bars represent standard error of the mean. Tumor tripling time was calculated as the time required for tumors to increase in volume […] over baseline (defined as tumor volume before administration of dose on first day of treatment). Harvested tumors were fixed in 10% neutral buffered formalin and processed by Yale Pathology Tissue Services for H&E, Caspase 3, HER2, and Ki67. Images were taken at 4× magnification.

[9] = system: BT474 cells; assay: Apoptosis after XPD knockdown in BT474 cells (Western blot); assay type: cell-based, human; conditions: siRNA XPD knockdown
Procedure: as §1, §4

[10] = system: BT474 cells; assay: Immunofluorescence of γH2AX and 53BP1 foci in BT474 cells; assay type: cell-based, human
Procedure: as §6

[11] = system: BT474 cells; assay: Flow cytometry of phosphorylated ATM; assay type: cell-based, human; conditions: 24 h
Procedure: Flow Cytometry. BT474 cells were collected 24 h following treatment with either MIX24 HER2-205. After washing with PBS, cells were incubated with 1% paraformaldehyde for 15 minutes on ice. Cells were then fixed with cold 70% ethanol at −20° C. for 2 h or kept for up to 2 weeks until further analysis. Cells were centrifuged and rinsed with PBS, blocked with PBST buffer (1% w/v bovine serum albumin and 0.2% v/v Triton X-100 in PBS) for 15 minutes on ice, followed by another PBS rinse. Cells were first incubated with anti-phospho-ATM (S1981, EMD Millipore) in PBST at 1:100 dilution for 1 h at room temperature. Cells were rinsed with PBST and incubated with anti-rabbit IgG Fab2 Alexa 488 (Molecular Probes) at 1:100 dilution at room temperature for 1 h, and then rinsed with PBST. Acquisition of labeled cells and analysis of data was completed using a flow cytometer (FACS Calibur) and FlowJo software respectively.

[12] = system: HER2-positive cell lines; assay: Annexin-V apoptosis analysis in breast cancer cell lines; assay type: cell-based, human; conditions: 24 h post TFO-treatment
Procedure: as §3, §5

[13] = system: HER2; assay: Western blot of total HER2 protein and phosphorylation levels; assay type: cell-based, human; conditions: HER2-positive cells compared to control samples
Procedure: as §4

[14] = system: PE01 and SKOV3 cells; assay: Monolayer growth survival assay in ovarian cancer cells; assay type: cell-based, human; conditions: 72 h after treatment
Procedure: Survival Assay. Cell survival seas assayed by visualization of monolayer growth. Briefly, cells were plated at a defined density in 6 or 12-well dishes and treated with either transfection reagent alone (mock), MIX24, or HER2-205 as previously described. Monolayers were visualized by staining cells with crystal violet 72 h post-treatment.

[15] = system: PE01 and SKOV3 cells; assay: Neutral comet assay in ovarian cancer cells; assay type: cell-based, human
Procedure: as §2

[16] = 24 h after single dose 20 mg/kg

With “HER2-5922-2: TFO targeting intron 2 of the HER2 gene, 5′-GGGAAAGAGGAGGGGGTGAGAGGAGTGGGG-3′ (triplex-forming oligonucleotide, chemistry not given here, further chemistry not given here)” the “DSBs as indicated by DNA tail moment” value [1] was “significantly, more DSBs”.
In the case of “HER2-205: TFO binding a polypurine sequence in the HER2 coding region, 5′-GAGGAGGAGTGGGAGAATGGGGGG-3′ (DNA GAGGAGGAGTGGGAGAATGGGGGG; DNA, backbone not given here)”, the “DSBs as indicated by DNA tail moment” value [2] is reported as “significantly more DSBs”, the HER2 gene expression [3] is reported as “not significantly affected” and the “Chk1 phosphorylation at serine 345” value [4] is reported as “observed after HER2-205 treatment in the HER2-amplified cells and not in the cells with normal HER2 gene copy numbers”. For the same substance, the “survival (tumors smaller than three times baseline) compared with cisplatin” value ([5]; 3 doses) was “substantial survival advantage”, the “average tumor volume smaller than in cisplatin-treated mice” value ([5]; 3 doses once per week) was 49% and the apoptosis [6] was “activated apoptosis”. For the same substance, the γH2AX foci [7] was “increased”, the “tumor growth relative to controls” value [8] was “suppressed tumor growth to a significantly greater degree than the controls” and the “tumor tripling time post-initial dose” value [8] was 29 ± 5.7 days. For the same substance, the “proliferation by Ki67 staining in tumor sections” value [8, 16] was “decreased proliferation”, the “tumor cell apoptosis (cleaved caspase 3) in tumor sections” value [8, 16] was “Tumor cell apoptosis” and the “reduction in tumor volumes compared to controls” value ([8]; HER2-positive breast cancer xenografts) was 52%. For the same substance, the “phosphorylation of Y142 in H2AX and activation of apoptosis” value [9] was “requirement for XPD”, the “colocalization of γH2AX and 53BP1, percent of cells” value ([10]; 24 h) was 49% and the “γH2AX and 53BP1 foci compared to MIX24” value ([10]; 24 h post-treatment) was “substantially increased”. For the same substance, the pATM positive cells [11] was “increase”, the “percentage of apoptotic cells (Annexin-V)” value [12] was “higher percentage of apoptotic cells than that with HER2-1” and the “DSBs as indicated by DNA tail moment” value [1] was “significantly, more DSBs”. The “total and activated HER2 levels” value [13] was “remain the same”, the “cell viability (monolayer growth)” value [14] was “reduced cell viability” and the DNA tail moments [15] was “increased”.
In the case of “MIX24: control mixed-sequence oligonucleotide, 5′-AGTCAGTCAGTCAGTCAGTCAGTC-3′ (DNA AGTCAGTCAGTCAGTCAGTCAGTC; listed as DNA, chemistry not given here) [reference compound]”, the “tumor growth relative to controls” value [8] is reported as “no impact” and the “tumor tripling time post-initial dose” value [8] is reported as 16.3 ± 6.6 days.
With “HER2-40118: TFO targeting intron 19 of the HER2 gene, 5′-GGGGGAAATAGGGAGGGTGGGG-3′ (triplex-forming oligonucleotide, chemistry not given here, further chemistry not given here)” the “DSBs as indicated by DNA tail moment” value [1] was “significantly, more DSBs”.
